Where a name gives a salt, the structure may show the parent alone.
Tests used:
Wee-1 kinase = Wee-1 kinase (Homo sapiens (Human), UniProt P30291); assay: Measurement of Wee-1 kinase activity (ADP-Glo); type: biochemical; conditions: read-out: Wee-1 IC50 activity
Method: Method 1: Measurement of Wee-1 kinase activity
In the measurement of Wee-1 activity, a commercial peptide Poly(Lys Tyr(4:1)) hydrobromide was purchased from Sigma Aldrich and used as the substrate. Activated Wee-1 kinase was purchased from Invitrogen (PV3817) and an ADP-Glo luminescent kit was purchased from Promega.
All reactions took place in […] volumes in reaction buffer containing 40 mM Tris-HCl and 20 mM magnesium chloride, supplemented with 0.1 mg/mL bovine serum albumin and 2 mM DTT. Compounds were serially diluted in buffer and 5 μL of each concentration pipetted into a white 384 well plate (Sigma Aldrich M6186). A 5 μL aliquot of the Wee-1 enzyme was added to each well and the plate centrifuged for 1 min to ensure mixing of the enzyme and inhibitor.
The plate was incubated at room temperature for 30 minutes before the addition of 2.0 μg/mL of substrate and 30 μM ATP in a 5 μL aliquot. The plate was centrifuged for one minute and incubated for 1 h at RT.
15 μL of ADP-Glo stop reagent was added to each well to quench the reaction and deplete unconverted ATP. The plate was incubated for a further 40 min in the dark at RT.
30 μL of ADP-Glo kinase detection reagent was added to each well, converting ADP to ATP, catalysing the generation of luciferin by luciferase. The plate was shaken for 1 min, and incubated in the dark for an additional hour.
Luminescence from each well was detected using the Biotek Synergy4 HD plate reader and the percentage inhibition of kinase activity calculated for each inhibitor tested. Positive (kinase only) and negative (no kinase) controls were added to each plate to ensure specific interaction of kinase and inhibitor. The IC50 concentration for each inhibitor was calculated by plotting the percentage kinase inhibition against concentration of inhibitor and the curve generated by non-linear regression fitting.

[1] = system: phospho-cdc2 (Tyr15) in HT-29 cells; assay: Effect on phosphorylation of cdc2 at Tyr15 in HT-29 cells (PathScan ELISA); type: cell-based; conditions: Homo sapiens, HT-29, 8 h; HT29 cells, eight hours incubation; read-out: HT29 pCDC2 activity
Method: Method 2: Determining the effect of compounds on the phosphorylation of cdc2 at Tyr15
The colorectal cancer cell lines HT-29 and HCT-116 were purchased from the ATCC and routinely maintained in McCoy's Medium (Invitrogen) supplemented with 10% Foetal Calf Serum.
The cells were trypsinised from their growing vessel and counted, 100 μL of cell suspension containing 6000 cells was pipetted into black 96 well Co-star plates and incubated overnight to allow adherence to the surface at a temperature of 37° C. and an atmosphere of 5% CO2. Test compounds were formulated in DMSO and diluted in foetal calf serum supplemented medium. Incubating medium was removed by aspiration and diluted drug supplemented medium added to each well.
The plate was returned to the incubator for an additional eight hours at 37° C. and an atmosphere of 5% CO2. Post incubation, the drug supplemented medium was aspirated from each well and the cells were washed once in ice-cold phosphate buffered saline (PBS). 100 μL of cell lysis buffer (Cell Signalling Technologies #9803) containing 20 mM Tris, 150 mM NaCl, 1 mM EDTA, 1 mM EGTA, 1% Triton-X100, 2.5 mM sodium pyrophosphate, 1 mM glycerophosphate, 1 mM Na3VO4 and 1 μg/mL leupeptin was added to each well of the 96 well plate and incubated at 4° C. for 30 min. The samples on the plate were snap frozen at −80° C. until required.
Immediately before the continuation of the assay, the sample plate was thawed and centrifuged at 4° C. for 10 min and the supernatant transferred to secondary tubes or 96 well plate.
Cell supernatant was mixed in a ratio of 1:1 with sample dilutent buffer and vortexed for one minute. 100 μL of diluted sample was pipetted into pre-coated plates containing a rabbit polyclonal antibody for phospho-cdc2 (Tyr15) (Cell Signalling Technologies PathScan kit #7176). The plate was sealed and incubated overnight at 4° C.
The plate seal was removed and the well contents aspirated, followed by 3×5 min washes with 200 μL of diluted wash buffer. Between each wash the plate was tapped firmly onto blotting paper to ensure the removal of all kit solution. 100 μL of kit detection antibody was added to each well and the plate re-sealed and incubated at 37° C. for 1 h. Post incubation the plate was washed and processed in a similar manner to that previously described.
100 μL of horseradish peroxidise-linked secondary antibody was added to each test well, the plate sealed and incubated for thirty minutes at 37° C. Post incubation, the plate was washed as previously stated, followed by the addition of 100 μL of 3,3′,5,5′ tetramethylbenzidine (TMB reagent). The plate was sealed and incubated at RT for 30 min.
100 μL of stop solution was added to each well and the underside of the plate wiped with a lint-free tissue, prior to spectrophotometric determination. Absorbance from each well was read at 450 nm within 30 min of the addition of the stop solution.
The percentage of phospho-cdc2 was calculated compared to DMSO control and plotted versus the concentration of inhibitor using GraphPad Prism. Data was fitted using non-linear regression analysis and IC50 values generated.

[2] = Rat hepatocyte assay CLint; type: in vitro ADME; conditions: hepatocytes
Method: (§1) Compounds of the present invention have good stability in human and/or rat hepatocyte incubations. In particular, representative examples 7, 8, 13, 18, 20 have CLint of <20 μL/min/10^6 cells in a human hepatocyte assay and/or <40 μL/min/10^6 cells in a rat hepatocyte assay.

[3] = target: human ether a go-go related gene (hERG) K+ channel (Homo sapiens (Human), UniProt Q12809); assay: hERG inhibition, IonWorks patch clamp electrophysiology; type: cell-based; conditions: 8-point curve from 11 μM
Chain of human ether a go-go related gene (hERG) K+ channel (Q12809 whole entry): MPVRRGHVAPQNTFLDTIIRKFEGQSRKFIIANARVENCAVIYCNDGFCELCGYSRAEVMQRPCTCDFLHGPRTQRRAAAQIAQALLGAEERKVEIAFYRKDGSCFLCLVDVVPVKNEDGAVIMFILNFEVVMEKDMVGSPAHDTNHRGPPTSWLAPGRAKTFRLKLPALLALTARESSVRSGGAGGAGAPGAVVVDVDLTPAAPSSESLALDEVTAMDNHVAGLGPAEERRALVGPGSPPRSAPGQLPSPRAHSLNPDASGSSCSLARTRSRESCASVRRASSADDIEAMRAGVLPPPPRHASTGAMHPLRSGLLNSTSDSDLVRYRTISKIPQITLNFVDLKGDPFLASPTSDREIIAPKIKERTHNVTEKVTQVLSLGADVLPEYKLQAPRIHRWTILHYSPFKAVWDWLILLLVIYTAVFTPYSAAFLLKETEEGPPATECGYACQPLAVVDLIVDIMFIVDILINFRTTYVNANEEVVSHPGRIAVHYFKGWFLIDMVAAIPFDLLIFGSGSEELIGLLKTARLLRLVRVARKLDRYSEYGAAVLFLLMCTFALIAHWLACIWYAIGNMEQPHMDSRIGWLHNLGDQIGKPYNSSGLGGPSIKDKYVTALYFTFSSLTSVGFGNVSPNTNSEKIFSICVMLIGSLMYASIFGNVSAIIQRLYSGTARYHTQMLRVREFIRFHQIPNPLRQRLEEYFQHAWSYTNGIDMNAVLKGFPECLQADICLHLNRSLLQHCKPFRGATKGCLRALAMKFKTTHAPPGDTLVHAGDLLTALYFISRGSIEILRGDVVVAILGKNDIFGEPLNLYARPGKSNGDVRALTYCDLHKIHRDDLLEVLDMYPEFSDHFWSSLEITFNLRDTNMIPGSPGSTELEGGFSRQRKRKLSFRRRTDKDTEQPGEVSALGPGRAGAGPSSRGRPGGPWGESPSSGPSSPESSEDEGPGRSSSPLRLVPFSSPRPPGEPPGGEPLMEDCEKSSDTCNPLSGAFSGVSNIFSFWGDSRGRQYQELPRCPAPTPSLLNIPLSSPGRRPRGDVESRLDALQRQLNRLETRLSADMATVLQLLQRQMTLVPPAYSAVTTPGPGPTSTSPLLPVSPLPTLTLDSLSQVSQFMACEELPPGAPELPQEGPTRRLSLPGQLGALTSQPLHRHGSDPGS
Method: Compounds were tested for inhibition of the human ether a go-go related gene (hERG) K^+ channel using IonWorks patch clamp electrophysiology at Essen BioScience.

[4] = Oral bioavailability in rat; conditions: in vivo
From the text: Compounds of the present invention are orally bioavailable.

[5] = CLint estimates using human liver microsomes; type: in vitro ADME; conditions: pH 7.4, read-out: HLM activity (HLM CLint)
Method: Method for the Determination of CLint Estimates Using Human Liver Microsomes
Test compounds (final concentration=1 μM; final DMSO concentration=0.1%) were incubated in 0.1M phosphate buffer pH 7.4 with human liver microsomes (0.5 mg of protein/mL) at 37° C. Reactions were started by addition of NADPH in 0.1M phosphate buffer pH 7.4 (final concentration 1 mM). 40 μL aliquots were removed at 2, 5, 10, 15, 20, 30, 40 and 50 min. Reactions were quenched in 80 μL of ice-cold methanol. Samples were subsequently frozen overnight then centrifuged at 3500 rpm for 20 min at 4° C. The supernatants were removed and transferred into analytical plates and analysed by LC/MS/MS.
All samples were analysed on a Waters Acquity I-Class coupled to a Waters Xevo TQD mass spectrometer. A Waters BEH C18 2.1×50 mm 1.7 μm column was used and mobile phases were water and methanol containing 0.1% formic acid as modifier. Analysis was by multiple reaction monitoring and conditions were optimised for each test compound.
From a plot of ln peak area against time, the gradient of the line is determined. Subsequently, half-life and intrinsic clearance are calculated using the following equations.

[6] = Human hepatocyte assay CLint; type: in vitro ADME; conditions: hepatocytes
Method: as §1

CYP2D6 = CYP2D6 (Homo sapiens (Human), UniProt P10635); assay: Time dependent CYP inhibition: CYP2D6; type: in vitro ADME; conditions: 30 min pre incubation ±NADPH relative to direct inhibition IC50 with no pre-incubation
Chain of CYP2D6 (P10635 whole entry): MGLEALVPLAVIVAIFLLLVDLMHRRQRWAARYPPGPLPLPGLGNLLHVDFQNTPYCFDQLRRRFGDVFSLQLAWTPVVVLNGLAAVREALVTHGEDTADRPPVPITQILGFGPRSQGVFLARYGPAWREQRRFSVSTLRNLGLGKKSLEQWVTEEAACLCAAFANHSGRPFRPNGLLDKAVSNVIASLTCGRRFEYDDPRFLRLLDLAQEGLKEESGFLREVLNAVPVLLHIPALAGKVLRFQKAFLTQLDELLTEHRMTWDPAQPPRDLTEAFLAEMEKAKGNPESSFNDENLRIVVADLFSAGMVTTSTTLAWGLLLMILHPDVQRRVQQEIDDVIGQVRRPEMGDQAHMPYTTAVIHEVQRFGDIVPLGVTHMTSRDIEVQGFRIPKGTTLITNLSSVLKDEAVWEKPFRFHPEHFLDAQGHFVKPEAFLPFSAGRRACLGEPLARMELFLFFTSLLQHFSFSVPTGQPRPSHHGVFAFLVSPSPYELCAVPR
From the text: (§2) Compounds of the present invention have no time dependent CYP inhibition.

CYP2C9 = CYP2C9 (Homo sapiens (Human), UniProt P11712); assay: Time dependent CYP inhibition: CYP2C9; type: in vitro ADME; conditions: 30 min pre incubation ±NADPH relative to direct inhibition IC50 with no pre-incubation
Chain of CYP2C9 (P11712 whole entry): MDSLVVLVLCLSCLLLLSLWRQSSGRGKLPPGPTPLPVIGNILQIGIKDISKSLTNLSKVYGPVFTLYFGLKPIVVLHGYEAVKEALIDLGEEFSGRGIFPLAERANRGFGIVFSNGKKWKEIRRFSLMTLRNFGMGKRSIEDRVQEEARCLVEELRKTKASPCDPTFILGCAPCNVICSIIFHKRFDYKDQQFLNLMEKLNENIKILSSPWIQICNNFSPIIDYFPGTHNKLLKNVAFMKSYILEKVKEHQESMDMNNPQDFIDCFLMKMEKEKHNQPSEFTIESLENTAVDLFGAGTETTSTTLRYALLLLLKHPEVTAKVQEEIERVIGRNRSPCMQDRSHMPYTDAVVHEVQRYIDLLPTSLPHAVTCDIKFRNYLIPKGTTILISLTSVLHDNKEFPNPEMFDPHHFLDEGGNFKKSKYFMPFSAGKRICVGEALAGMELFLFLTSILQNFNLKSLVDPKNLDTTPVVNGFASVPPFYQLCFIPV
From the text: as §2

CYP3A4 = CYP3A4 (Homo sapiens (Human), UniProt P08684); assay: Time dependent CYP inhibition: CYP3A4; type: in vitro ADME; conditions: 30 min pre incubation ±NADPH relative to direct inhibition IC50 with no pre-incubation
Chain of CYP3A4 (P08684 whole entry): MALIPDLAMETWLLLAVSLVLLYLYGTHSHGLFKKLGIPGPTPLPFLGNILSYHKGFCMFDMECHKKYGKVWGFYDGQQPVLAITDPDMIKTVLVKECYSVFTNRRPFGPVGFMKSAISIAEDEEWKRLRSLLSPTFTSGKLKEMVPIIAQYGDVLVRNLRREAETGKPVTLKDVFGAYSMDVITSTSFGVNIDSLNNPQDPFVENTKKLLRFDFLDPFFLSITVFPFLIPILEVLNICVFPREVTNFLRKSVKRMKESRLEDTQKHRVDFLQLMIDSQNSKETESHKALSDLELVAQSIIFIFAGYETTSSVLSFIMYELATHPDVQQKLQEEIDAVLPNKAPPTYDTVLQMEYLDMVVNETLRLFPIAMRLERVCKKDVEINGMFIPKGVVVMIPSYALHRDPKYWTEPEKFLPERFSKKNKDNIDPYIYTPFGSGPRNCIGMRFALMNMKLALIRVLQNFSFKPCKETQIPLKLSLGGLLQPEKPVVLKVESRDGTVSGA
From the text: as §2

CYP2C19 = CYP2C19 (Homo sapiens (Human), UniProt P33261); assay: Time dependent CYP inhibition: CYP2C19; type: in vitro ADME; conditions: 30 min pre incubation ±NADPH relative to direct inhibition IC50 with no pre-incubation
Chain of CYP2C19 (P33261 whole entry): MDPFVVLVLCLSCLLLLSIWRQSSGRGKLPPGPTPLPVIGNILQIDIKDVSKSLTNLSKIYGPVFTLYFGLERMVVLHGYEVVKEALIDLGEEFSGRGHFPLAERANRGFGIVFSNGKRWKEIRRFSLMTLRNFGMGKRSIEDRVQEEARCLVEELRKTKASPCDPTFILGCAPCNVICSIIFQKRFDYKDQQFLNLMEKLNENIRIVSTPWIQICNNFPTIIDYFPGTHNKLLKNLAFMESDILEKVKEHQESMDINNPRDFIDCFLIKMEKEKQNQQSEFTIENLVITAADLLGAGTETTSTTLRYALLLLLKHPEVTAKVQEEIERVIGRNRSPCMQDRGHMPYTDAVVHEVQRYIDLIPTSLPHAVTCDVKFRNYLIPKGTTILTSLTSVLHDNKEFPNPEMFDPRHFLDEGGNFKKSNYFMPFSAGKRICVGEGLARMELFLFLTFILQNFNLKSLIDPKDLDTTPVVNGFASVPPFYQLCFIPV
From the text: as §2

Chain of Wee-1 kinase (P30291 whole entry): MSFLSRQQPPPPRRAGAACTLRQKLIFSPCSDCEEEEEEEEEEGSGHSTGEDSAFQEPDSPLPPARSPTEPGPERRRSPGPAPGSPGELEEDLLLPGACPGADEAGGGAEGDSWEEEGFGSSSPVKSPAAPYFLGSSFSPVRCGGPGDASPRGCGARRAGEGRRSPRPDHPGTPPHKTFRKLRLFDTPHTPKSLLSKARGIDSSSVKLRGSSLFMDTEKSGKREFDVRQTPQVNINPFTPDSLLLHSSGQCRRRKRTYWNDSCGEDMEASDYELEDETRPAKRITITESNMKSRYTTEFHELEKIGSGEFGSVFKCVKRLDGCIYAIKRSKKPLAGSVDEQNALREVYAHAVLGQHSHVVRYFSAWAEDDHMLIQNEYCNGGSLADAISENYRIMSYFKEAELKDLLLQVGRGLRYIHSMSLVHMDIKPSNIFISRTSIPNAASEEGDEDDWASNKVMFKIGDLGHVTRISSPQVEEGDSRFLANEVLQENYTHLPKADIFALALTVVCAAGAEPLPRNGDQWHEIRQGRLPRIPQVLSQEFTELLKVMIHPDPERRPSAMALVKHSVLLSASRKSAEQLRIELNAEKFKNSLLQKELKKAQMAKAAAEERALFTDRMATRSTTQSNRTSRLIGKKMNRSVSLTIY

| IC50 (Wee-1 kinase) | IC50 [1] | hepatocyte CLint [2] | bioavailability [4] | microsomal CLint at 1 μM [5] | hepatocyte CLint [6] | time dependent inhibition of CYP2D6: shift in IC50 (CYP2D6) | time dependent inhibition of CYP2C9: shift in IC50 (CYP2C9) | time dependent inhibition of CYP3A4: shift in IC50 (CYP3A4) | time dependent inhibition of CYP2C19: shift in IC50 (CYP2C19) | SMILES | IC50 [3] |
| --- | --- | --- | --- | --- | --- | --- | --- | --- | --- | --- | --- |
| < 10 nM | ≤ 100 nM | < 40 µL/min/1e6 cells | > 25% | ≤ 20 µL/min/mg | < 20 µL/min/1e6 cells | – | – | – | – | Cc1cc(Nc2ncc3c(=O)n(-c4c(Cl)cccc4Cl)ccc3n2)ccc1N1CCNCC1 [Example 7, 6-(2,6-Dichlorophenyl)-2-((3-methyl-4-(piperazin-1-yl)phenyl)amino)pyrido[4,3-d]pyrimidin-5(6H)-one] | 1000 to 10000 nM |
| < 10 nM | ≤ 100 nM | < 40 µL/min/1e6 cells | > 25% | ≤ 20 µL/min/mg | < 20 µL/min/1e6 cells | < 2 fold | < 2 fold | < 2 fold | < 2 fold | COc1cc(Nc2ncc3c(=O)n(-c4c(Cl)cccc4Cl)ccc3n2)ccc1N1CCNCC1 [Example 13, 6-(2,6-Dichlorophenyl)-2-((3-methoxy-4-(piperazin-1-yl)phenyl)amino)pyrido[4,3-d]pyrimidin-5(6H)-one, HCl] | ≥ 10000 nM |
| < 10 nM | ≤ 100 nM | < 40 µL/min/1e6 cells | – | ≤ 20 µL/min/mg | < 20 µL/min/1e6 cells | – | – | – | – | O=c1c2cnc(Nc3ccc(N4CCNCC4)c(CO)c3)nc2ccn1-c1c(Cl)cccc1Cl [Example 18, 6-(2,6-Dichlorophenyl)-2-((3-(hydroxymethyl)-4-(piperazin-1-yl)phenyl)amino)pyrido[4,3-d]pyrimidin-5(6H)-one] | ≥ 10000 nM |
| < 10 nM | ≤ 100 nM | < 40 µL/min/1e6 cells | > 25% | ≤ 20 µL/min/mg | < 20 µL/min/1e6 cells | < 2 fold | < 2 fold | < 2 fold | < 2 fold | CNCc1cc(Nc2ncc3c(=O)n(-c4c(Cl)cccc4Cl)ccc3n2)ccc1N1CCOCC1 [Example 20, 6-(2,6-Dichlorophenyl)-2-((3-((methylamino)methyl)-4-morpholinophenyl)amino)pyrido[4,3-d]pyrimidin-5(6H)-one] | ≥ 10000 nM |

From patent US9714244B2, “Substituted pyrido[4,3-d]pyrimidines as Wee-1 inhibitors” (ALMAC DISCOVERY LIMITED, priority 2013, dated 2017)
